This note sets out measurements from ChEMBL document CHEMBL4138253, “Synthesis and Biological Evaluation of a Series of Bile Acid Derivatives as FXR Agonists for Treatment of NASH” (ACS Med Chem Lett, 2017).

Data set [1] relates to Mus musculus. As to the kind of experiment: AUC in C57BL/6 mouse assessed as tauro-INT-747 level at 10 mg/kg, po administered via gavage. The data set is classed as ADME, organism-based. To be noted: in vivo.
Data set [2] can be described thus: Ratio of drug level in C57BL/6 mouse liver to plasma at 10 mg/kg, po administered as single dose via gavage measured at 3 hrs post dose by LC-MS/MS analysis. The data set is classed as ADME, organism-based.
Data set [3] has as its system Mus musculus. As to the kind of experiment: Cmax in C57BL/6 mouse assessed as tauro-INT-747 level at 10 mg/kg, po administered via gavage. The format is ADME, organism-based. Further details: dose 10 mg/kg, route oral. To be noted: in vivo.
Data set [4] in a line: Drug level in C57BL/6 mouse liver at 2 mg/kg, po administered as single cassette dose via gavage measured at 0.5 hrs post dose by LC-MS/MS analysis. The format is ADME, organism-based. To be noted: in vivo.
Data set [5] addresses T1, Bile acid receptor (Homo sapiens, UniProt Q96RI1).
T1 sequence (Q96RI1 whole entry): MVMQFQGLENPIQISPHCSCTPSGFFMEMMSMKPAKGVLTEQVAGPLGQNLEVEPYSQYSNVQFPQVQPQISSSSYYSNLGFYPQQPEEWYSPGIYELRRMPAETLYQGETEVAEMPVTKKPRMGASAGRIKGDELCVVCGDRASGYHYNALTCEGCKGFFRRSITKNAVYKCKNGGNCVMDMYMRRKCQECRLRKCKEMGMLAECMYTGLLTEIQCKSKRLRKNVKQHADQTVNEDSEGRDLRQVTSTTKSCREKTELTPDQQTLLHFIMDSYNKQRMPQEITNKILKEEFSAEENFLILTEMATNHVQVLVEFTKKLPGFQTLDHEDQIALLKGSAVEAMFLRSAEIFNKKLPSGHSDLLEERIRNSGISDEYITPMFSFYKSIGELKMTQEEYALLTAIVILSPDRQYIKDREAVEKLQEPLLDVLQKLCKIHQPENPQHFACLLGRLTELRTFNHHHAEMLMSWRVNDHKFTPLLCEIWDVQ
The data set can be described thus: Agonist activity at recombinant human Gal4-fused FXR expressed in CHO cells measured after 22 hrs by luciferase reporter gene assay. The data set is classed as cell-based. Background: In a reporter assay the amount or activity of a reporter protein is the signal.

Data set [6] in a line: Drug metabolism in C57BL/6 mouse liver assessed as INT-747 level at 10 mg/kg, po administered as single dose via gavage measured at 0.5 hrs post dose by LC-MS/MS analysis. Conditions: in vivo. The format is ADME, organism-based.
Data set [7] in a line: Drug level in C57BL/6 mouse plasma at 2 mg/kg, po administered as single cassette dose via gavage measured at 3 hrs post dose by LC-MS/MS analysis. The format is ADME, organism-based.
Data set [8] is described as follows: Drug level in C57BL/6 mouse plasma at 10 mg/kg, po administered as single dose via gavage measured at 3 hrs post dose by LC-MS/MS analysis. The data set is classed as ADME, organism-based.
Data set [9] in a line: Drug metabolism in C57BL/6 mouse plasma assessed as INT-747 level at 10 mg/kg, po administered as single dose via gavage measured at 3 hrs post dose by LC-MS/MS analysis. The format is ADME, organism-based. Conditions: in vivo.
Data set [10] is described as follows: Drug level in C57BL/6 mouse liver at 10 mg/kg, po administered as single dose via gavage measured at 3 hrs post dose by LC-MS/MS analysis. The format is ADME, organism-based. To be noted: in vivo.
The subject of data set [11] is Mus musculus. As to the kind of experiment: Anti-hepatic steatosis activity in HFD/CCl4-induced non-alcoholic hepatic steatosis C57BL/6 mouse model assessed as reduction in triglyceride level administered once daily via oral gavage for 28 days measured at post last dose by […] assay. The data set is classed as ADME, organism-based. Conditions: in vivo, 672 h.

Data set [12] concerns Mus musculus. As to the kind of experiment: Anti-hepatic steatosis activity in HFD/CCl4-induced non-alcoholic hepatic steatosis C57BL/6 mouse model assessed as reduction in liver fibrosis administered once daily via oral gavage for 28 days measured at post last dose by sirus red staining based assay. Conditions: in vivo, 672 h. The data set is classed as ADME, organism-based.

Data set [13] can be described thus: Drug metabolism in C57BL/6 mouse assessed as ratio of INT-747 level in liver to plasma at 10 mg/kg, po administered as single dose via gavage measured at 3 hrs post dose by LC-MS/MS analysis. The data set is classed as ADME, organism-based. To be noted: other tissue.
Data set [14] relates to Mus musculus. The data set can be described thus: Cmax in C57BL/6 mouse assessed as INT-747 level at 10 mg/kg, po administered via gavage. Conditions: in vivo. The data set is classed as ADME, organism-based. On the set-up: dose 10 mg/kg, route oral.
Data set [15] concerns Mus musculus. As to the kind of experiment: AUC in C57BL/6 mouse assessed as glyco-INT-747 level at 10 mg/kg, po administered via gavage. The format is ADME, organism-based. To be noted: in vivo, BLD = below limit of detection.
The nature of data set [16]: Drug metabolism in C57BL/6 mouse assessed as ratio of INT-747 level in liver to plasma at 10 mg/kg, po administered as single dose via gavage measured at 0.5 hrs post dose by LC-MS/MS analysis. The data set is classed as ADME, organism-based. To be noted: other tissue.
Data set [17] can be described thus: Tmax in C57BL/6 mouse at 10 mg/kg, po administered via gavage. The data set is classed as ADME, organism-based. To be noted: in vivo.
Data set [18] is filed under the species Homo sapiens. The data set can be described thus: Selectivity ratio of EC50 for recombinant human GST-tagged FXR LBD (193 to 472 residues) expressed in baculovirus-infected insect cells to EC50 for human TGR5 expressed in HEK293 cells.
A short description of data set [19]: Cmax in C57BL/6 mouse at 10 mg/kg, po administered via gavage. The format is ADME, organism-based. To be noted: in vivo. On the set-up: dose 10 mg/kg, route oral.
In data set [20] the target is T2, Bile acid receptor (Homo sapiens) (UniProt Q96RI1).
T2 sequence (whole entry): T1 sequence (Q96RI1 whole entry)
As to the kind of experiment: Agonist activity at recombinant human Gal4-fused FXR expressed in CHO cells measured after 22 hrs by luciferase reporter gene assay relative to CDCA. The format is cell-based.

Data set [21] has as its system Mus musculus. The data set can be described thus: Tmax in C57BL/6 mouse assessed as INT-747 level at 10 mg/kg, po administered via gavage. The format is ADME, organism-based. To be noted: in vivo.
Data set [22] in a line: Drug level in C57BL/6 mouse plasma at 10 mg/kg, po administered as single dose via gavage measured at 0.5 hrs post dose by LC-MS/MS analysis. The data set is classed as ADME, organism-based.
A short description of data set [23]: AUC in C57BL/6 mouse at 10 mg/kg, po administered via gavage. The format is ADME, organism-based. To be noted: in vivo.
A short description of data set [24]: Ratio of drug level in liver to plasma in C57BL/6 mouse at 2 mg/kg, po administered as single cassette dose via gavage measured at 0.5 hrs post dose. The format is ADME, organism-based.
Data set [25] relates to Mus musculus. The data set can be described thus: Anti-hepatic steatosis activity in HFD/CCl4-induced non-alcoholic hepatic steatosis C57BL/6 mouse model assessed as reduction in hepatic steatosis score administered once daily via oral gavage for 28 days measured at post last dose by hematoxylin-eosin staining based assay. The format is ADME, organism-based. Conditions: in vivo, 672 h.

For data set [26], the system named is Mus musculus. As to the kind of experiment: Tmax in C57BL/6 mouse assessed as tauro-INT-747 level at 10 mg/kg, po administered via gavage. The data set is classed as ADME, organism-based. To be noted: in vivo.
Data set [27] can be described thus: Drug level in C57BL/6 mouse liver at 2 mg/kg, po administered as single cassette dose via gavage measured at 3 hrs post dose by LC-MS/MS analysis. The data set is classed as ADME, organism-based. To be noted: in vivo.
The nature of data set [28]: Ratio of drug level in C57BL/6 mouse liver to plasma at 10 mg/kg, po administered as single dose via gavage measured at 0.5 hrs post dose by LC-MS/MS analysis. The format is ADME, organism-based.
Data set [29] can be described thus: Drug level in C57BL/6 mouse liver at 10 mg/kg, po administered as single dose via gavage measured at 0.5 hrs post dose by LC-MS/MS analysis. The data set is classed as ADME, organism-based. To be noted: in vivo.
In data set [30] the test system is Mus musculus. The data set can be described thus: Cmax in C57BL/6 mouse assessed as glyco-INT-747 level at 10 mg/kg, po administered via gavage. The format is ADME, organism-based. Further details: dose 10 mg/kg, route oral. To be noted: in vivo, BLD = below limit of detection.
A short description of data set [31]: Drug level in C57BL/6 mouse plasma at 2 mg/kg, po administered as single dose via gavage measured at 0.5 hrs post dose by LC-MS/MS analysis. The data set is classed as ADME, organism-based.
Data set [32] can be described thus: Ratio of drug level in liver to plasma in C57BL/6 mouse at 2 mg/kg, po administered as single cassette dose via gavage measured at 3 hrs post dose. The data set is classed as ADME, organism-based.
Data set [33] concerns Mus musculus. As to the kind of experiment: AUC in C57BL/6 mouse assessed as INT-747 level at 10 mg/kg, po administered via gavage. The format is ADME, organism-based. Conditions: in vivo.
For data set [34], the target named is T3, G-protein coupled bile acid receptor 1 (Homo sapiens, UniProt Q8TDU6).
T3 sequence (Q8TDU6 whole entry): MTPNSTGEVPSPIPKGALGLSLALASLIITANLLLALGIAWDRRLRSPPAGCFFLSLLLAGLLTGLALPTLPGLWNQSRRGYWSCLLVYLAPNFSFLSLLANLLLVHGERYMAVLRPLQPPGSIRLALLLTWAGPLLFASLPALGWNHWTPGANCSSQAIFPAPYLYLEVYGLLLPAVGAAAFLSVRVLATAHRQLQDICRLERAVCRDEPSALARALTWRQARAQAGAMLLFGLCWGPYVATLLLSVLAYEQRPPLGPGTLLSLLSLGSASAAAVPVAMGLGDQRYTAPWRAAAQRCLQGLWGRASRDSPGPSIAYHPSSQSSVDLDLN
The data set can be described thus: Agonist activity at human TGR5 expressed in HEK293 cells assessed as increase in intracellular cAMP level after 1 hr by TR-FRET assay. The format is functional, cell-based. (In general: cAMP levels reflect the balance of adenylyl cyclase and phosphodiesterase activity.)

Data set [35] is described as follows: Drug metabolism in C57BL/6 mouse liver assessed as INT-747 level at 10 mg/kg, po administered as single dose via gavage measured at 3 hrs post dose by LC-MS/MS analysis. Conditions: in vivo. The format is ADME, organism-based.
Data set [36] deals with T1, Bile acid receptor. As to the kind of experiment: (§1) Agonist activity at human FXR assessed as recruitment of SRC1 peptide by TR-FRET assay. (In TR-FRET formats the signal depends on donor and acceptor labels being close together.)
In data set [37] the target is T2, Bile acid receptor (Homo sapiens). The description is as §1.

Turning to `CC[C@H]1[C@@H](O)[C@@H]2[C@H](CC[C@]3(C)[C@@H]([C@H](C)CCC(=O)NS(C)(=O)=O)CC[C@@H]23)[C@@]2(C)CC[C@@H](O)C[C@@H]12`, the AUC (as a rule, concentration integrated over time) in data set [1] is 5.416 µM·h; in data set [15] it was “Bld”; in [23] it was 1.19 µM·h; in [33], 0.216 µM·h. For the same molecule, the Kp – broadly, the ratio of the level in a tissue or fluid to that in plasma or blood – at 3 h in data set [2] is 52; in [32], 124. The Cmax – broadly, the maximum level reached in the sampled fluid or tissue – was 270 nM in [3], 446 nM in [14], 610 nM in [19] and “Bld” in data set [30]. The Drug uptake came out at 7183 nmol/kg in [4]; 2863 nmol/kg in data set [6]; 15560 nmol/kg in data set [10]; 1361 nmol/kg in [27]; 27920 nmol/kg in data set [29]; 1486 nmol/kg in data set [35]. Further, the EC50 (in general, the concentration needed to bring the measured effect to its halfway point) is 50 nM in [5] and 700 nM in data set [34]. Besides, the concentration at 3 h was 15 nM in data set [7] and 298 nM in data set [8]. The concentration in [9] was 126 nM. In addition, the Activity entry in [11], in data set [12] and in data set [25] was “Dose-dependent effect” throughout. The results for the Ratio in data set [13] and in data set [16] were 12 and 21, respectively. Further, the results for the Tmax in data set [17], in data set [21] and in [26] were 30 min, 30 min and 480 min, respectively. Moreover, in data set [18], the Ratio EC50 was determined as 14. The Efficacy in data set [20] was found to be 191%. In addition, the values for the concentration at 0.5 h in data set [22] and in data set [31] were 388 nM and 136 nM, respectively. Also, the partition ratio (Kp) at 0.5 h in data set [24] and in data set [28] was 53 in each case.

For the molecule `C[C@H](CCn1oc(=O)[nH]c1=O)[C@H]1CC[C@H]2[C@@H]3[C@H](O)C[C@@H]4C[C@H](O)CC[C@]4(C)[C@H]3CC[C@]12C`, the EC50 in data set [36] stood at 1220 nM. The Efficacy in data set [37] stood at 111%.
